Data published in patent US12491180B2, “Application of compound in treating pneumonia” (SHENZHEN OPTIMUM BIOLOGICAL TECHNOLOGY CO., LTD., priority 2019, dated 2025).
Converted amounts (≈) assume the structure as drawn.

Tests used:
Assay type in all cases: cell-based
[1] = tested on: Acinetobacter baumannii 6383; assay: MIC, solid dilution method; details: A.B 6383, CRE clinical isolate, MHA agar, 37° C., 16-20 hours, read-out: MIC
Method: (§1) CRE Acinetobacter baumannii 8476, 6383, a total of 2 strains; CRE Serratia marcescens 14541, a total of 1 strain; all collected in the Department of Infectious Diseases, West China Hospital, Chengdu, Sichuan Province, and kept in our laboratory.
(§2) The above-mentioned glycerol-preserved strains were taken out from the −80° C. refrigerator, streaked and inoculated on MHA plates, labeled, and cultured overnight in a 37° C. incubator.
(§3) The inoculum was prepared directly from bacterial suspension, and several recovered colonies were picked and directly prepared into a bacterial suspension with a turbidity of No. 0.5 McFarland units in normal saline, and a 10-fold dilution was made during inoculation.
(§4) 6 bottles of MHA culture medium 500 mL/bottle were prepared, and the pH was adjusted to 7.2-7.4, sterilized at 121° C. for 15 min, and the medium was placed in a 55° C. water bath to keep warm.
(§5) Sterile blank petri dishes were taken, and marked with each FL drug/concentration according to 2-fold dilution, and 10 concentrations of each drug starting from 8 μg/mL were tested.
(§6) […]; 20 mL was aspirated and added to a petri dish consistent with the mark, and then 20 mL of MHA culture medium was added to the rest of the drug-containing culture medium, mixed evenly, that is, the 2-fold diluted drug-containing culture medium; 20 mL was aspirated and added to the petri dish consistent with the mark, and then diluted to the 10th concentration and the […] respectively by repeating the above-mentioned steps, and then poured into the petri dish.
(§7) 4 bacterial control petri dishes without drug were prepared at the same time as a control.
(§8) The positioning needle and the inoculation needle were installed according to the order of placement of the colony on the inoculation plate. After inoculation, a bacterial solution circle was formed on the petri dish. After the bacterial solution was absorbed by the agar, the petri dish was placed in an incubator at 37° C. for overnight incubation (16-20 hours), and then taken out.
(§9) The minimum inhibitory concentrations of the compounds against the CRE and CSE strains were determined by the solid dilution method, and the results are shown in Tables 3 and 4.

[2] = tested on: Acinetobacter baumannii 8476; assay: MIC, solid dilution method; details: A.B 8476, CRE clinical isolate, MHA agar, 37° C., 16-20 hours, read-out: MIC
Method: as §1, §2, §3, §4, §5, §6, §7, §8, §9

[3] = tested on: Enterobacter aerogenes 8193; assay: MIC, solid dilution method; details: Klebsiella aerogenes; E. ae 8193, CRE clinical isolate; MHA agar, 37° C., 16-20 hours; read-out: MIC
Method: CRE Enterobacter aerogenes 8193, a total of 1 strain;
as §2, §3, §4, §5, §6, §7, §8, §9

[4] = tested on: Klebsiella pneumoniae 13249; assay: MIC, solid dilution method; details: K.p 13249, CRE clinical isolate, MHA agar, 37° C., 16-20 hours, read-out: MIC
Method: (§10) (2) Clinical isolated strains: CRE Klebsiella pneumoniae 5846, 11544, 12559, 13249 and CSE Klebsiella pneumoniae 8733, a total of 5 strains;
as §2, §3, §4, §5, §6, §7, §8, §9

[5] = tested on: Klebsiella pneumoniae 5846; assay: MIC, solid dilution method; details: K.p 5846, CRE clinical isolate, MHA agar, 37° C., 16-20 hours, read-out: MIC
Method: as §10, §2, §3, §4, §5, §6, §7, §8, §9

[6] = tested on: Klebsiella pneumoniae 12559; assay: MIC, solid dilution method; details: K.p 12559, CRE clinical isolate, MHA agar, 37° C., 16-20 hours, read-out: MIC
Method: as §10, §2, §3, §4, §5, §6, §7, §8, §9

[7] = tested on: Klebsiella pneumoniae 8733; assay: MIC, solid dilution method; details: K.p 8733, CSE clinical isolate, MHA agar, 37° C., 16-20 hours, read-out: MIC
Method: as §10, §2, §3, §4, §5, §6, §7, §8, §9

[8] = tested on: Klebsiella pneumoniae 11544; assay: MIC, solid dilution method; details: K.p 11544, CRE clinical isolate, MHA agar, 37° C., 16-20 hours, read-out: MIC
Method: as §10, §2, §3, §4, §5, §6, §7, §8, §9

[9] = tested on: Escherichia coli ATCC25922; assay: MIC, solid dilution method; details: E. coli ATCC25922, standard strain, MHA agar, 37° C., 16-20 hours, read-out: MIC
Method: (§11) (1) Standard strains: Escherichia coli BAA-2452, Escherichia coli ATCC25922, Klebsiella pneumoniae BAA-1705; all purchased from ATCC.
as §2, §3, §4, §5, §6, §7, §8, §9

[10] = tested on: Klebsiella pneumoniae BAA-1705; assay: MIC, solid dilution method; details: BAA1705, K.p BAA-1705, standard strain, MHA agar, 37° C., 16-20 hours, read-out: MIC
Method: as §11, §2, §3, §4, §5, §6, §7, §8, §9

[11] = tested on: Escherichia coli BAA-2452; assay: MIC, solid dilution method; details: BAA2452, E. coli BAA-2452, standard strain, MHA agar, 37° C., 16-20 hours, read-out: MIC
Method: as §11, §2, §3, §4, §5, §6, §7, §8, §9

16 clinical CRE strains = assay: MIC50, MIC90 and MIC range against 16 clinical CRE strains; details: 16 clinical CRE strains; for MIC50: read-out: MIC50; for MIC90: read-out: MIC90
Method: as §2, §3, §4, §5, §6, §7, §8, §9

Klebsiella oxytoca 14151 = assay: MIC, solid dilution method; details: K. ox 14151, CRE clinical isolate, MHA agar, 37° C., 16-20 hours, read-out: MIC
Method: as §2, §3, §4, §5, §6, §7, §8, §9

Escherichia coli 14828 = assay: MIC, solid dilution method; details: E. coli 14828, CRE clinical isolate, MHA agar, 37° C., 16-20 hours, read-out: MIC
Method: as §2, §3, §4, §5, §6, §7, §8, §9

Escherichia coli 13897 = assay: MIC, solid dilution method; details: E. coli 13897, CRE clinical isolate, MHA agar, 37° C., 16-20 hours, read-out: MIC
Method: as §2, §3, §4, §5, §6, §7, §8, §9

Klebsiella oxytoca 14153 = assay: MIC, solid dilution method; details: K. ox 14153, CRE clinical isolate, MHA agar, 37° C., 16-20 hours, read-out: MIC
Method: as §2, §3, §4, §5, §6, §7, §8, §9

Escherichia coli 11119 = assay: MIC, solid dilution method; details: E. coli 11119, CRE clinical isolate, MHA agar, 37° C., 16-20 hours, read-out: MIC
Method: as §2, §3, §4, §5, §6, §7, §8, §9

Klebsiella oxytoca 12391 = assay: MIC, solid dilution method; details: K. ox 12391, CRE clinical isolate, MHA agar, 37° C., 16-20 hours, read-out: MIC
Method: as §2, §3, §4, §5, §6, §7, §8, §9

E. coli 11256 = assay: MIC, solid dilution method; details: Escherichia coli; E. coli 11256; MHA agar, 37° C., 16-20 hours; read-out: MIC
Method: as §2, §3, §4, §5, §6, §7, §8, §9

Klebsiella oxytoca 6777 = assay: MIC, solid dilution method; details: K. ox 6777, CRE clinical isolate, MHA agar, 37° C., 16-20 hours, read-out: MIC
Method: as §2, §3, §4, §5, §6, §7, §8, §9

Row | Compound | MIC [1] [µg/mL] | MIC [2] [µg/mL] | MIC [3] [µg/mL] | MIC [4] [µg/mL] | MIC [5] [µg/mL] | MIC [6] [µg/mL] | MIC [7] [µg/mL] | MIC [8] [µg/mL] | MIC [9] [µg/mL] | MIC [10] [µg/mL] | MIC [11] [µg/mL] | MIC50 (16 clinical CRE strains) [µg/mL] | MIC90 (16 clinical CRE strains) [µg/mL] | MIC (Klebsiella oxytoca 14151) [µg/mL] | MIC (Escherichia coli 14828) [µg/mL] | MIC (Escherichia coli 13897) [µg/mL] | MIC (Klebsiella oxytoca 14153) [µg/mL] | MIC (Escherichia coli 11119) [µg/mL] | MIC (Klebsiella oxytoca 12391) [µg/mL] | MIC (E. coli 11256) [µg/mL] | further results
1 | CC1(C)[C@H](NC(=O)/C(=N\O[C@@H](COc2ccc3c(c2)CN(C(=N)NOCCN)C3)C(=O)O)c2csc(N)n2)C(=O)N1OS(=O)(=O)O [Compound 43] | > 8 | 8 (≈ 11.7 µM) | 2 (≈ 2.92 µM) | > 8 | 0.5 (≈ 0.729 µM) | 0.5 (≈ 0.729 µM) | 0.25 (≈ 0.365 µM) | > 8 | 0.06 (≈ 0.0875 µM) | 1 (≈ 1.46 µM) | 0.5 (≈ 0.729 µM) | 2 (≈ 2.92 µM) | > 8 | 1 (≈ 1.46 µM) | 0.5 (≈ 0.729 µM) | 0.25 (≈ 0.365 µM) | 1 (≈ 1.46 µM) | > 8 | 1 (≈ 1.46 µM) | 0.125 (≈ 0.182 µM) | MIC (Klebsiella oxytoca 6777): 1 µg/mL (≈ 1.46 µM)
2 | CC1(C)[C@H](NC(=O)/C(=N\O[C@@H](COc2ccc3c(c2)CN(/C(=N\[C@@H]2CCCNC2)N[C@@H]2CCCNC2)C3)C(=O)O)c2csc(N)n2)C(=O)N1OS(=O)(=O)O [Compound 46] | 4 (≈ 5.04 µM) | 4 (≈ 5.04 µM) | 1 (≈ 1.26 µM) | 8 (≈ 10.1 µM) | 0.125 (≈ 0.158 µM) | 0.25 (≈ 0.315 µM) | 0.125 (≈ 0.158 µM) | 8 (≈ 10.1 µM) | < 0.015 | 0.5 (≈ 0.631 µM) | 0.25 (≈ 0.315 µM) | 1 (≈ 1.26 µM) | 8 (≈ 10.1 µM) | 0.25 (≈ 0.315 µM) | 0.125 (≈ 0.158 µM) | 0.125 (≈ 0.158 µM) | 0.25 (≈ 0.315 µM) | 4 (≈ 5.04 µM) | 0.25 (≈ 0.315 µM) | 0.03 (≈ 0.0378 µM) | MIC (Klebsiella oxytoca 6777): 0.25 µg/mL (≈ 0.315 µM)
3 | CC1(C)[C@H](NC(=O)/C(=N\O[C@@H](COc2ccc3c(c2)CN(C(=N)N(CCCN)CCCN)C3)C(=O)O)c2csc(N)n2)C(=O)N1OS(=O)(=O)O [Compound 32] | 2 (≈ 2.7 µM) | 2 (≈ 2.7 µM) | 0.5 (≈ 0.675 µM) | 4 (≈ 5.4 µM) | 0.06 (≈ 0.081 µM) | 0.125 (≈ 0.169 µM) | 0.06 (≈ 0.081 µM) | 2 (≈ 2.7 µM) | < 0.015 | 0.125 (≈ 0.169 µM) | 0.25 (≈ 0.337 µM) | 0.125 (≈ 0.169 µM) | 4 (≈ 5.4 µM) | 0.125 (≈ 0.169 µM) | 0.06 (≈ 0.081 µM) | 0.06 (≈ 0.081 µM) | 0.125 (≈ 0.169 µM) | 4 (≈ 5.4 µM) | 0.125 (≈ 0.169 µM) | < 0.015 | MIC range (16 clinical CRE strains): 0.06 to 4 µg/mL; MIC (Klebsiella oxytoca 6777): 0.125 µg/mL (≈ 0.169 µM)
